Measurements as given in patent US20050192261A1, “Methods and reagents for the treatment of immunoinflammatory disorders” (priority 2003, published 2005).
Counter-ions that a name gives are not always drawn. Like-named read-outs stand apart in the source and are kept apart here.

Test system: TNFα secretion in white blood cells from human buffy coat stimulated with phorbol 12-myristate 13-acetate and ionomycin
Assay: TNFα secretion assay
Conditions: for inhibition at 14 µM / inhibition at 28 µM / inhibition at 0.2 µM / inhibition at 0.4 µM / inhibition at 0.8 µM / inhibition at 13 µM / inhibition at 25 µM / inhibition at 26 µM / inhibition at 0.5 µM / inhibition at 1 µM: Homo sapiens; for inhibition at 0.4 µM: read-out: percent inhibition of TNFα secretion, Amoxapine 0.4 μM; for inhibition at 0.8 µM: read-out: percent inhibition of TNFα secretion, Amoxapine 0.8 μM; for inhibition at 25 µM: read-out: percent inhibition of TNFα secretion, Amoxapine 25 μM; for inhibition at 26 µM: read-out: percent inhibition of TNFα secretion, Loratadine 26 μM; for inhibition at 0.5 µM: read-out: % inhibition of TNFα secretion, Rolipram 0.5 μM; for inhibition at 1 µM: read-out: % inhibition of TNFα secretion, Rolipram 1 μM
[1] = Bromodiphenhydramine HCl μM: 0/0.21/0.43/0.85/1.7/3.4/6.8/14/27
[2] = Cyproheptadine HCl μM: 0/0.24/0.48/0.96/1.9/3.9/7.7/15/31
[3] = Loratadine 0/0.2/0.41/0.82/1.6/3.3/6.5/13/26 μM
[4] = Thiethylperazine Maleate μM: 0/0.2/0.39/0.78/1.6/3.1/6.3/13/25
[5] = Bromodiphenhydramine HCl μM r5-r13: 0,0.21,0.43,0.85,1.7,3.4,6.8,14,27
[6] = Cyproheptadine HCl μM r5-r13: 0,0.24,0.48,0.96,1.9,3.9,7.7,15,31
[7] = Loratadine μM r5-r13: 0,0.2,0.41,0.82,1.6,3.3,6.5,13,26
[8] = Thiethylperazine Maleate μM r5-r13: 0,0.2,0.39,0.78,1.6,3.1,6.3,13,25

Experimental: Drugs were added to the indicated concentration. […] The plate was then washed again with 0.1% Tween 20/PBS. An HRP-luminescent substrate was added to each well, and the light intensity of each well was measured using a plate luminometer.

With Clc1ccc(Cn2c(CN3CCCC3)nc3ccccc32)cc1 [Clemizole HCl, clemizole] the inhibition at 14 µM (read-out: percent inhibition (dose matrix), Table 96, Clemizole HCl 14 μM, Amoxapine 0-25 μM) was -11.9%, the inhibition at 28 µM (read-out: percent inhibition (dose matrix), Table 96, Clemizole HCl 28 μM, Amoxapine 0-25 μM) was 0.658% and the inhibition at 14 µM (read-out: percent inhibition (dose matrix), Table 97, Clemizole HCl 14 μM, Nortriptyline HCl 0-33 μM per row (c1)) was 5.46%. For the same compound, the inhibition at 28 µM (read-out: percent inhibition (dose matrix), Table 97, Clemizole HCl 28 μM, Nortriptyline HCl 0-33 μM per row (c1)) was 19.5%, the inhibition at 14 µM (read-out: percent inhibition (dose matrix), Table 98, Clemizole HCl 14 μM, Paroxetine HCl 0-27 μM per row (c1)) was 0.085% and the inhibition at 28 µM (read-out: percent inhibition (dose matrix), Table 98, Clemizole HCl 28 μM, Paroxetine HCl 0-27 μM per row (c1)) was -7.43%. The inhibition at 14 µM (read-out: percent inhibition (dose matrix), Table 103, Clemizole HCl 14 μM, Fluoxetine HCl 0-29 μM) was 9.15%, the inhibition at 28 µM (read-out: percent inhibition (dose matrix), Table 103, Clemizole HCl 28 μM, Fluoxetine HCl 0-29 μM) was 9.27% and the inhibition at 14 µM (read-out: percent inhibition (dose matrix), Table 107, Clemizole HCl 14 μM, Desipramine HCl 0-32 μM per row (c1)) was 3.19%. For the same compound, the inhibition at 28 µM (read-out: percent inhibition (dose matrix), Table 107, Clemizole HCl 28 μM, Desipramine HCl 0-32 μM per row (c1)) was 14.9%, the inhibition at 14 µM (read-out: percent inhibition (dose matrix), Table 108, Clemizole HCl 14 μM, Sertraline HCl 0-32 μM per row (c1)) was 4.65% and the inhibition at 28 µM (read-out: percent inhibition (dose matrix), Table 108, Clemizole HCl 28 μM, Sertraline HCl 0-32 μM per row (c1)) was 16.9%. It also gave an inhibition at 14 µM (read-out: percent inhibition of TNFα secretion, Clemizole HCl 14 μM, Amoxapine μM r5-r13: 0,0.2,0.4,0.8,1.6,3.2,6.4,13,25) of 20%, an inhibition at 14 µM (read-out: percent inhibition of TNFα secretion, Clemizole HCl 14 μM, Desipramine HCl: 0/0.25/0.5/1/2/4/8/16/32 μM) of 26.4% and an inhibition at 14 µM (read-out: percent inhibition of TNFα secretion, Clemizole HCl 14 μM, Fluoxetine HCl μM: 0/0.23/0.45/0.9/1.8/3.6/7.2/14/29) of 26.1%. It also gave an inhibition at 14 µM (read-out: percent inhibition of TNFα secretion, Clemizole HCl 14 μM, Paroxetine HCl μM r5-r13: 0,0.21,0.42,0.83,1.7,3.3,6.7,13,27) of 22.4%, an inhibition at 14 µM (read-out: percent inhibition of TNFα secretion, Clemizole HCl 14 μM, Sertraline HCl by grid row r5-r13: 0/0.25/0.49/0.99/2/4/7.9/16/32 μM) of 24.5% and an inhibition at 28 µM (read-out: percent inhibition of TNFα secretion, Clemizole HCl 28 μM, Amoxapine μM r5-r13: 0,0.2,0.4,0.8,1.6,3.2,6.4,13,25) of 42.5%. For the same compound, the inhibition at 28 µM (read-out: percent inhibition of TNFα secretion, Clemizole HCl 28 μM, Desipramine HCl: 0/0.25/0.5/1/2/4/8/16/32 μM) was 41.4%, the inhibition at 28 µM (read-out: percent inhibition of TNFα secretion, Clemizole HCl 28 μM, Fluoxetine HCl μM: 0/0.23/0.45/0.9/1.8/3.6/7.2/14/29) was 34.1% and the inhibition at 28 µM (read-out: percent inhibition of TNFα secretion, Clemizole HCl 28 μM, Paroxetine HCl μM r5-r13: 0,0.21,0.42,0.83,1.7,3.3,6.7,13,27) was 42.1%. For the same compound, the inhibition at 28 µM (read-out: percent inhibition of TNFα secretion, Clemizole HCl 28 μM, Sertraline HCl by grid row r5-r13: 0/0.25/0.49/0.99/2/4/7.9/16/32 μM) was 43.3% and the “inhibition of TNFα secretion” value (prednisolone […], clemizole HCl r5-r13: 0,0.22,0.43,0.86,1.7,3.5,6.9,14,28 μM) was 28.
Work on Clc1ccc2c(c1)C(N1CCNCC1)=Nc1ccccc1O2 [Amoxapine, amoxapine] yielded an inhibition at 0.2 µM (read-out: percent inhibition of TNFα secretion, Amoxapine 0.2 μM, Bromodiphenhydramine HCl μM: 0/0.21/0.43/0.85/1.7/3.4/6.8/14/27) of 4.3%, an inhibition at 0.2 µM (read-out: percent inhibition of TNFα secretion, Amoxapine 0.2 μM, Cyproheptadine HCl μM: 0/0.24/0.48/0.96/1.9/3.9/7.7/15/31) of 3.5% and an inhibition at 0.2 µM (read-out: percent inhibition of TNFα secretion, Amoxapine 0.2 μM, Loratadine 0/0.2/0.41/0.82/1.6/3.3/6.5/13/26 μM) of 7.52%. For the same compound, the inhibition at 0.2 µM (read-out: percent inhibition of TNFα secretion, Amoxapine 0.2 μM, Thiethylperazine Maleate μM: 0/0.2/0.39/0.78/1.6/3.1/6.3/13/25) was 12%, the inhibition at 0.4 µM [1] was 13% and the inhibition at 0.4 µM [2] was 9.8%. For the same compound, the inhibition at 0.4 µM [3] was 11.2%, the inhibition at 0.4 µM [4] was 12% and the inhibition at 0.8 µM [1] was 20%. For the same compound, the inhibition at 0.8 µM [2] was 17%, the inhibition at 0.8 µM [3] was 22.2% and the inhibition at 0.8 µM [4] was 24%. It also gave an inhibition at 13 µM (read-out: percent inhibition of TNFα secretion, Amoxapine 13 μM, Bromodiphenhydramine HCl μM: 0/0.21/0.43/0.85/1.7/3.4/6.8/14/27) of 80%, an inhibition at 13 µM (read-out: percent inhibition of TNFα secretion, Amoxapine 13 μM, Cyproheptadine HCl μM: 0/0.24/0.48/0.96/1.9/3.9/7.7/15/31) of 85% and an inhibition at 13 µM (read-out: percent inhibition of TNFα secretion, Amoxapine 13 μM, Loratadine 0/0.2/0.41/0.82/1.6/3.3/6.5/13/26 μM) of 83.7%. It also gave an inhibition at 13 µM (read-out: percent inhibition of TNFα secretion, Amoxapine 13 μM, Thiethylperazine Maleate μM: 0/0.2/0.39/0.78/1.6/3.1/6.3/13/25) of 74%, an inhibition at 25 µM [1] of 92% and an inhibition at 25 µM [2] of 94%. It also gave an inhibition at 25 µM [3] of 88.2% and an inhibition at 25 µM [4] of 83%.
For CC(C)(C(=O)O)c1ccc(C(O)CCCN2CCC(C(O)(c3ccccc3)c3ccccc3)CC2)cc1 (centres unmarked) [Fexofenadine HCl], the “inhibition of TNFα secretion” value (prednisolone 0.5 μM, fexofenadine HCl r5-r13: 0,0.073,0.15,0.29,0.58,1.2,2.3,4.6,9.3 μM) was 50.
Work on CCOC(=O)N1CCC(=C2c3ccc(Cl)cc3CCc3cccnc32)CC1 [Loratadine, loratadine] yielded an inhibition at 0.2 µM (read-out: percent inhibition of TNFα secretion, Loratadine 0.2 μM, Desipramine HCl: 0/0.25/0.5/1/2/4/8/16/32 μM) of -1.95%, an inhibition at 0.2 µM (read-out: percent inhibition of TNFα secretion, Loratadine 0.2 μM, Fluoxetine HCl μM: 0/0.23/0.45/0.9/1.8/3.6/7.2/14/29) of 3.68% and an inhibition at 0.2 µM (read-out: percent inhibition of TNFα secretion, Loratadine 0.2 μM, Paroxetine HCl: 0/0.21/0.42/0.83/1.7/3.3/6.7/13/27 μM) of -1.38%. It also gave an inhibition at 13 µM (read-out: percent inhibition of TNFα secretion, Loratadine 13 μM, Desipramine HCl: 0/0.25/0.5/1/2/4/8/16/32 μM) of 31.7%, an inhibition at 13 µM (read-out: percent inhibition of TNFα secretion, Loratadine 13 μM, Fluoxetine HCl μM: 0/0.23/0.45/0.9/1.8/3.6/7.2/14/29) of 42.9% and an inhibition at 13 µM (read-out: percent inhibition of TNFα secretion, Loratadine 13 μM, Paroxetine HCl: 0/0.21/0.42/0.83/1.7/3.3/6.7/13/27 μM) of 38.3%. The inhibition at 26 µM (Desipramine HCl: 0/0.25/0.5/1/2/4/8/16/32 μM) was 41.5%, the inhibition at 26 µM (Fluoxetine HCl μM: 0/0.23/0.45/0.9/1.8/3.6/7.2/14/29) was 56.6% and the inhibition at 26 µM (Paroxetine HCl: 0/0.21/0.42/0.83/1.7/3.3/6.7/13/27 μM) was 43.4%.
For COc1ccc(CN(CCN(C)C)c2ccccn2)cc1 [Pyrilamine Maleate], the “inhibition of TNFα secretion” value (prednisolone […], pyrilamine maleate r5-r13: 0,0.19,0.38,0.76,1.5,3,6.1,12,24 μM) was 20.
Compound COc1ccc(C2CNC(=O)C2)cc1OC1CCCC1 (centres unmarked) [Rolipram] has an inhibition at 0.5 µM [5] of 37%, an inhibition at 0.5 µM [6] of 44% and an inhibition at 0.5 µM [7] of 43%. The inhibition at 0.5 µM [8] was 38%, the inhibition at 1 µM [5] was 44% and the inhibition at 1 µM [6] was 38%. It also gave an inhibition at 1 µM [7] of 50% and an inhibition at 1 µM [8] of 39%.
